According to US20240124454A1, “TRICYCLIC COMPOUND AND USE THEREOF” (NANJING ZAIMING PHARMACEUTICAL CO., LTD., priority 2020, published 2024):
Where two headings read alike, the source gives them in different places.

Legend:
HCT116 MTAP^−/− cells = test: Cell proliferation inhibition test (Cell-Titer Glo), HCT116 MTAP−/−; assay type: cell-based, human; conditions: Homo sapiens, HCT-116, 144 h, 6 days, read-out: HCT116 MTAP−/− Antiproliferative activity IC50
Experimental: (§1) Test Example 3. Cell Proliferation Inhibition Test of Human Colon Cancer HCT116 WT Cells and HCT116 MTAP-1-Cells
(§2) The brief introduction of the test principle: After the test MAT2A inhibitor was incubated with cancer cells for a period of time, the effect of the test compound on cell proliferation was measured using a cell proliferation count method based on the ATP content.
(§3) Reference: The experiment referred to the method disclosed in patent WO2018045071.
(§4) Material and cell: HCT116 WT cells and HCT116 MTAP^−/− cells were purchased from KYinno; fetal bovine serum, McCoy's 5a culture medium, and penicillin-streptomycin were purchased from Gibco Company (U.S.), 96-well plates were purchased from Corning Company (U.S.), and the Cell-Titer Glo reagent was purchased from Promega Company (U.S.).
(§5) Cell culture: HCT116 WT cells and HCT116 MTAP^−/− cells were cultured with a McCoy's 5a medium containing 10% fetal bovine serum+1% penicillin-streptomycin at 37° C. with 5% CO2.
(§6) Cells at logarithmic growth phase were available for the experiment.
(§7) Cell proliferation activity test: The Cell-Titer Glo reagent was used to test the compound for inhibitory activity on proliferation of both HCT116 WT and HCT116 MTAP^−/− cell strains. The cells were adjusted to a concentration of 400 cells per well, seeded on a 96-well plate, and incubated overnight at 37° C. with 5% CO2.
(§8) In the experimental group, the test compound was diluted sequentially with DMSO and a culture medium, and transferred to a cell plate at a final concentration of 10 μM, 3-fold dilution. The cells were continuously cultured at 37° C. with 5% CO2 for 6 days. The Cell-Titer Glo reagent was added and the cell activity was measured.
(§9) A negative control group and a positive control group were respectively used as Bottom and Top. The negative control group was not added with cells, only added with the culture medium in the same volume, and other operations were consistent with those of the experimental group. The positive control group was not added with the test compound, only added with DMSO in the same volume, and other operations were consistent with those of the experimental group.
(§10) The % Compound inhibition was calculated and fitted to give the IC50 of the compound.
(§11) % Compound inhibition=1-100%×(Signal−Bottom)/(Top−Bottom).
(§12) Signal referred to the signal value of the experimental group, Bottom referred to the average signal value of the negative control group, and Top referred to the average signal value of the positive control group.
(§13) HCT116 MTAP^−/− cells are cells not expressing MTAP protein obtained by site-directed knockout of wild type HCT116 (HCT116 WT) cells by gene knockout. Synthetic lethality will occur due to MAT2A inhibition and the deletion of MTAP, thereby causing tumor cell death. The activity and selectivity of the MAT2A inhibitor can be evaluated by testing the antiproliferative activity of the MAT2A inhibitor on human colon cancer HCT116 MTAP^−/− cells and human colon cancer HCT116 WT.

MAT2A = MAT2A (Homo sapiens (Human), UniProt P31153); test: MAT2A biochemical test (inorganic phosphate colorimetric, PiColorLock); conditions: read-out: MAT2A inhibitory Activity IC50
Chain of MAT2A (P31153 whole entry): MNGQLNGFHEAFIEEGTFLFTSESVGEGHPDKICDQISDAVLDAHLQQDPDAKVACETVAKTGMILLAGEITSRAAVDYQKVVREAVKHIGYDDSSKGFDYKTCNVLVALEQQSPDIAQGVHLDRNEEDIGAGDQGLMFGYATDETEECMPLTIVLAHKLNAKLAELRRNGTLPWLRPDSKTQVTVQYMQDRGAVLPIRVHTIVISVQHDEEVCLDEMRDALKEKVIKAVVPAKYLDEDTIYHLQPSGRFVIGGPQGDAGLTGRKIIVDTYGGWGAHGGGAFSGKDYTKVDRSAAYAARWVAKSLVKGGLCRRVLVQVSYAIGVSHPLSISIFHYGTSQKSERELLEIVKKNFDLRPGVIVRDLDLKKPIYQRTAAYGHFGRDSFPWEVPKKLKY
Text: Test Example 1. Biochemical Test
The brief introduction of the test principle: L-methionine and ATP can be converted into SAM, inorganic phosphate, and inorganic diphosphate under the catalysis of MAT2A enzymes. The content of inorganic phosphate in the sample can be quantitatively determined by adding a developer such as ammonium molybdate or the like to the enzymatic reaction mixture, thereby reflecting the enzymatic activity of MAT2A.
as §3
Material: MAT2A screening kits were purchased from BPS bioscience (U.S.); 384-well plates were purchased from Corning Company (U.S.). • 1. MAT2A protein (Pharmaron Beijing Co., Ltd.); • 2. L-methionine (Sigma #M9625-5G) • 3. ATP (Sigma #A7699-1G) • 4. KCl (Sigma #60142-500ML-F) • 5. Tris (Sigma #T2663-1L) • 6. MgCl2 (Sigma #M1028) • 7. EDTA (Invitrogen #AM9260G) • 8. BSA (Sangon Biotech #A500023-0100) • 9. PiColorLock (abcam #ab270004)
Detection method: In the experimental group, the test compound was dissolved in DMSO, diluted to a final concentration of 10 μM using Echo, and diluted 3-fold. 80 nL of the dilution was transferred to a 384-well plate.
The experimental buffer (50 mM Tris, 50 mM KCl, 15 mM MgCl2, 100 μM EDTA, 0.005% BSA) was prepared. The MAT2A protein was diluted with the experimental buffer (at final concentration of […]). 40 μL of 2×MAT2A solution was added to the 384-well plate. The plate was centrifuged at 1000 rpm for 1 min and incubated at room temperature for 120 min.
L-methionine and ATP (the final concentration of L-methionine was […] and the final concentration of ATP was 400 μM) were diluted with the experimental buffer. 40 μL of 2×L-methionine and ATP solution was added to initiate the reaction. The plate was centrifuged at 1000 rpm for 1 min and incubated at room temperature for 90 min.
The PiColorLock™ reaction catalyst was mixed with the PiColorLock™ buffer at a ratio of 1:100 according to the instructions. 20 μL was added to each well, and the plate was shaken for 30 s. 8 μL stabilizing reagent was added, and the plate was shaken for 30 s. The signal values were measured after 30 min of incubation at room temperature.
as §9, with “MAT2A protein,” for “cells, only added with the culture medium in the same volume,”
as §10, §11, §12
Under the condition of this experiment, the inhibitory effect of the test compound on MAT2A can be expressed as the IC50 of the inhibition on the phosphate production level during the enzymatic reaction.

HCT116 WT cells = test: Cell proliferation inhibition test (Cell-Titer Glo), HCT116 WT; assay type: cell-based, human; conditions: Homo sapiens, HCT-116, 144 h, 6 days, read-out: HCT116 WT Antiproliferative activity IC50
Experimental: as §1, §2, §3, §4, §5, §6, §7, §8, §9, §10, §11, §12, §13

IC50 (HCT116 MTAP^−/− cells) [nM]	IC50 (MAT2A; class symbols) [nM]	IC50 (MAT2A; numeric values) [nM]	IC50 (HCT116 WT cells) [nM]	SMILES
164	< 100	56.8	7860	Cn1cnc2c(=O)n(-c3cccnc3C(F)(F)F)c3nc(C(F)(F)F)ccc3c21 (atropisomer, axis not shown) [Compound 41, 1-methyl-7-(trifluoromethyl)-5-(2-(trifluoromethyl)pyridin-3-yl)-1,5-dihydro-4H-imidazo[4,5-c][1,8]naphthyridin-4-one]
244	< 100	47	2200	Cn1cnc2c(=O)n(-c3cccnc3C3CC3)c3nc(C(F)(F)F)ccc3c21 (atropisomer, axis not shown) [Compound 42, 5-(2-cyclopropylpyridin-3-yl)-1-methyl-7-(trifluoromethyl)-1,5-dihydro-4H-imidazo[4,5-c][1,8]naphthyridin-4-one]
87	< 100	48.5	473	Cc1ncccc1-n1c(=O)c2ncn(C)c2c2ccc(Cl)cc21 (atropisomer, axis not shown) [Compound 46, 7-chloro-1-methyl-5-(2-methylpyridin-3-yl)-1,5-dihydro-4H-imidazo[4,5-c]quinolin-4-one]
232	< 100	50.2	> 10000	Cn1cnc2c(=O)n(-c3cccnc3C(F)(F)F)c3cc(Cl)ccc3c21 (atropisomer, axis not shown) [Compound 47, 7-chloro-1-methyl-5-(2-(trifluoromethyl)pyridin-3-yl)-1,5-dihydro-4H-imidazo[4,5-c]quinolin-4-one]
186	< 100	52.3	1940	O=c1c2ncoc2c2ccc(C(F)(F)F)nc2n1-c1cccnc1C1CC1 (atropisomer, axis not shown) [Compound 81, 5-(2-cyclopropylpyridin-3-yl)-7-(trifluoromethyl)oxazolo[4,5-c][1,8]naphthyridin-4(5H)-one]
79	< 100	28.2	355	Cc1c(F)cccc1-n1c(=O)c2ncn(C)c2c2ccc(C(F)(F)F)nc21 (single isomer, unassigned) [Compound 43-P2, 5-(3-fluoro-2-methylphenyl)-1-methyl-7-(trifluoromethyl)-1,5-dihydro-4H-imidazo[4,5-c][1,8]naphthyridin-4-one]
33	< 100	19.8	214	Cc1ncccc1-n1c(=O)c2ncn(C)c2c2ccc(Cl)cc21 (single isomer, unassigned) [Compound 46-P2, 7-chloro-1-methyl-5-(2-methylpyridin-3-yl)-1,5-dihydro-4H-imidazo[4,5-c]quinolin-4-one]
130	< 100	23.3	8330	Cn1cnc2c(=O)n(-c3cccnc3C(F)(F)F)c3cc(Cl)ccc3c21 (single isomer, unassigned) [Compound 47-P2, 7-chloro-1-methyl-5-(2-(trifluoromethyl)pyridin-3-yl)-1,5-dihydro-4H-imidazo[4,5-c]quinolin-4-one]
490	< 100	37.9	7940	COc1c(F)cccc1-n1c(=O)c2ncn(C)c2c2ccc(C(F)(F)F)nc21 (single isomer, unassigned) [Compound 70-P2, 5-(3-fluoro-2-methoxyphenyl)-1-methyl-7-(trifluoromethyl)-1,5-dihydro-4H-imidazo[4,5-c][1,8]naphthyridin-4-one]
194	< 100	27.3	2210	Cn1cnc2c(=O)n(-c3cccc(C#N)c3Cl)c3nc(C(F)(F)F)ccc3c21 (single isomer, unassigned) [Compound 73-P2, 2-chloro-3-(1-methyl-4-oxo-7-(trifluoromethyl)-1,4-dihydro-5H-imidazo[4,5-c][1,8]naphthyridin-5-yl)benzonitrile]
50.2	< 100	23.1	271	Cc1ncccc1-n1c(=O)c2ncoc2c2ccc(C(F)(F)F)cc21 (single isomer, unassigned) [Compound 82-P2, 5-(2-methylpyridin-3-yl)-7-(trifluoromethyl)oxazolo[4,5-c]quinolin-4(5H)-one]
–	< 100	80.2	–	Cn1cnc2c(=O)n(-c3cccc(F)c3F)c3nc(C(F)(F)F)ccc3c21 [Compound 78, 5-(2,3-difluorophenyl)-1-methyl-7-(trifluoromethyl)-1,5-dihydro-4H-imidazo[4,5-c][1,8]naphthyridin-4-one]
–	100 to 500	102	–	Cc1ncncc1-n1c(=O)c2ncn(C)c2c2ccc(C(F)(F)F)nc21 [Compound 79, 1-methyl-5-(4-methylpyrimidin-5-yl)-7-(trifluoromethyl)-1,5-dihydro-4H-imidazo[4,5-c][1,8]naphthyridin-4-one]
–	< 100	53.4	–	Cn1cnc2c(=O)n(-c3cccnc3C(F)(F)F)c3cc(C(F)(F)F)ccc3c21 [Compound 84, 1-methyl-7-(trifluoromethyl)-5-(2-trifluoromethylpyridin-3-yl)-1,5-dihydro-4H-imidazo[4,5-c]quinolin-4-one]

SMILES	IC50 (HCT116 MTAP^−/− cells) [nM]	IC50 (MAT2A; class symbols) [nM]	IC50 (MAT2A; numeric values) [nM]	IC50 (HCT116 WT cells) [nM]
Cn1cnc2c(=O)n(-c3cccnc3C3CC3)c3cc(Cl)ccc3c21 (atropisomer, axis not shown) [Compound 49, 7-chloro-5-(2-cyclopropylpyridin-3-yl)-1-methyl-1,5-dihydro-4H-imidazo[4,5-c]quinolin-4-one]	87.9	< 100	28.1	1620
Cc1ncccc1-n1c(=O)c2ncoc2c2ccc(Cl)cc21 (single isomer, unassigned) [Compound 83-P2, 7-chloro-5-(2-methylpyridin-3-yl)oxazolo[4,5-c]quinolin-4(5H)-one]	54.3	< 100	23.1	203
Cc1ncccc1-n1c(=O)c2ncoc2c2ccc(Cl)cc21 [Compound 83, 7-chloro-5-(2-methylpyridin-3-yl)oxazolo[4,5-c]quinolin-4(5H)-one]	–	< 100	54.7	–
